Reference: paper PMC13586173, “Synthetic cannabinoid receptor agonists inhibit the cardiac voltage-gated potassium channel hERG” (Acta Pharmacologica Sinica, 2026)
pIC50: −log10 of the molar value.

Tests used:
hERG S649A = target: T1, hERG S649A (Homo sapiens, UniProt Q12809, S649A); test: Manual patch-clamp (MPC) on hERG S649A, transiently transfected CHO-K1 cells; type: cell-based
T1 construct: expressed in transfected cells; host or cells: CHO-K1 CCL-61 (ATCC), transient, co-transfected with pcDNA3-GFP
T1 sequence (Q12809 whole entry S649A): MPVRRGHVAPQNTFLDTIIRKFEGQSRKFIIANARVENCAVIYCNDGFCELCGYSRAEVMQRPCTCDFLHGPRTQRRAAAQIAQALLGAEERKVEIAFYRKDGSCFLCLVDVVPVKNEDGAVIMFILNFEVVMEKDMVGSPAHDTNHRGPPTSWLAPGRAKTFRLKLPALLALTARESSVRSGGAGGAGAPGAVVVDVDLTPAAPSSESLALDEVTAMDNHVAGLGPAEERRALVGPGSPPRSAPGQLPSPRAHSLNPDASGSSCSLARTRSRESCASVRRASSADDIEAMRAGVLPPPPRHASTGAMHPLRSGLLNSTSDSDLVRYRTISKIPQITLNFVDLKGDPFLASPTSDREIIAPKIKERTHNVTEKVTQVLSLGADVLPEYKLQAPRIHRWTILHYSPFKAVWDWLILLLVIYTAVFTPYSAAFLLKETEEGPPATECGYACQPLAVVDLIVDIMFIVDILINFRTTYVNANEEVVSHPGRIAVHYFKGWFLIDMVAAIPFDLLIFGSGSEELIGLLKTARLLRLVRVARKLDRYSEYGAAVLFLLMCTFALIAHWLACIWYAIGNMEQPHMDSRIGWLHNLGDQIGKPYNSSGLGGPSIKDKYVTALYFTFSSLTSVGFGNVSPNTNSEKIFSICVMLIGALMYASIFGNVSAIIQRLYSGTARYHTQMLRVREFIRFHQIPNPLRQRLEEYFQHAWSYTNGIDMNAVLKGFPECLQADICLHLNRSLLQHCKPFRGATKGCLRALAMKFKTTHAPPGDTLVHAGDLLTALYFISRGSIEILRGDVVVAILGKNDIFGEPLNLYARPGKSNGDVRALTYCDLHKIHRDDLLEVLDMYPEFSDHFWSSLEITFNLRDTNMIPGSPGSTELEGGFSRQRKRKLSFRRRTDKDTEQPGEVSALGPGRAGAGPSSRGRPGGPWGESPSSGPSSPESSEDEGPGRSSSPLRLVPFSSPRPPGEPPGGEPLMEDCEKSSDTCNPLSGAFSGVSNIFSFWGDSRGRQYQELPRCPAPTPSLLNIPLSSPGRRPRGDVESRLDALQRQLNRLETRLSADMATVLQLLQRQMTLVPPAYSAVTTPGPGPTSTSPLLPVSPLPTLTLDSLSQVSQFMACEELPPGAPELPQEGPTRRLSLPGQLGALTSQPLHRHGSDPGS
Excerpt: (§1) The hERG wild-type and Y652A constructs were kindly provided by Dr. Nicole Schmitt, and the eGFP-pcDNA3 construct was kindly provided by Dr. Antonios Pantazis. The S624A and S649A constructs were generated in-house from the wild-type template using the QuikChange II XL Site-Directed Mutagenesis Kit (Agilent Technologies, Santa Clara, CA, USA), in accordance with the manufacturer’s instructions. Mutagenesis primers were designed using the Agilent QuikChange Primer Design Program. Briefly, PCR amplification was performed according to the recommended cycling conditions, followed by DpnI digestion for 1 h to selectively degrade the parental (methylated) DNA template. The reaction products were then transformed into XL10-Gold ultracompetent cells. All constructs were verified by whole-plasmid sequencing (Eurofins Genomics, Germany) to confirm sequence accuracy.
(§2) Manual patch-clamp (MPC) recordings were performed 24–48 h post-transfection. Patch pipettes were pulled from borosilicate glass and had resistances of 4–7 MΩ when filled with intracellular solution. Coverslips with CHO-K1 cells were placed in a recording chamber and continuously perfused at room temperature (22–24 °C) with extracellular solution using a gravity-fed perfusion system. […] Compounds were applied to the recorded cells by a pressurized, automated OctaFlow perfusion system (ALA Scientific Instruments). […]

hERG Y652A = target: T2, hERG Y652A (Homo sapiens, UniProt Q12809, Y652A); test: Manual patch-clamp (MPC) on hERG Y652A, transiently transfected CHO-K1 cells; type: cell-based
T2 construct: expressed in transfected cells; host or cells: CHO-K1 CCL-61 (ATCC), transient, co-transfected with pcDNA3-GFP
T2 sequence (Q12809 whole entry Y652A): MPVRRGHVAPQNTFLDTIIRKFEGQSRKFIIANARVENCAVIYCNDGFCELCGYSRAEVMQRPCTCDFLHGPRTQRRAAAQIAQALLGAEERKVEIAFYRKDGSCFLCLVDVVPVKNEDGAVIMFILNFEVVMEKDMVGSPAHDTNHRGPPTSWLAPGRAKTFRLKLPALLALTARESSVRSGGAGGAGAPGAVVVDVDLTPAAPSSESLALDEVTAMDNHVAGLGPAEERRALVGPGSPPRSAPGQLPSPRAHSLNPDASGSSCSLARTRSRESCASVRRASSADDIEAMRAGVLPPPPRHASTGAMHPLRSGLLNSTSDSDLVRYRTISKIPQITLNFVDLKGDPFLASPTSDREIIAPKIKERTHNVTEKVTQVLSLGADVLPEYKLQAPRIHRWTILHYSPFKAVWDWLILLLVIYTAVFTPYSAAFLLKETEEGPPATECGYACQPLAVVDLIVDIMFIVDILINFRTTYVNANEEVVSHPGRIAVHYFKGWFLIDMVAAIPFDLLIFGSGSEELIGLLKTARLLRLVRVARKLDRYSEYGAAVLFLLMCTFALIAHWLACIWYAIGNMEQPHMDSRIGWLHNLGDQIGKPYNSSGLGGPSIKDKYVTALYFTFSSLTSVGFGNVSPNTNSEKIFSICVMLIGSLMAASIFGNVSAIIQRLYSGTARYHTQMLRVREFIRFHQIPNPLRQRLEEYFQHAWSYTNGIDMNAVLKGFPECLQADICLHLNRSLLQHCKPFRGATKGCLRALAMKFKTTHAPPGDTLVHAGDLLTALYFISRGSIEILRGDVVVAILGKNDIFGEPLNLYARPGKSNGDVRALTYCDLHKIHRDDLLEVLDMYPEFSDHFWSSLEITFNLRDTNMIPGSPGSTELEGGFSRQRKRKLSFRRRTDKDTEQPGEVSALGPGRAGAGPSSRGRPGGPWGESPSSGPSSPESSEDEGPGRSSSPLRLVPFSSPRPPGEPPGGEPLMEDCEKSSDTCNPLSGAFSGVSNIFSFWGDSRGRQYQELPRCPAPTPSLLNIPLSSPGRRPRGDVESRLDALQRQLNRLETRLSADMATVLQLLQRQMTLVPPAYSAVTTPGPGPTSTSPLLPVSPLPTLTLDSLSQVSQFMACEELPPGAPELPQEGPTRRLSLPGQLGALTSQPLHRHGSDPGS
Excerpt: as §1, §2

hERG WT = target: T3, hERG WT (Homo sapiens, UniProt Q12809); test: Manual patch-clamp (MPC) on hERG wild type; type: cell-based
T3 construct: expressed in transfected cells
T3 sequence (Q12809 whole entry): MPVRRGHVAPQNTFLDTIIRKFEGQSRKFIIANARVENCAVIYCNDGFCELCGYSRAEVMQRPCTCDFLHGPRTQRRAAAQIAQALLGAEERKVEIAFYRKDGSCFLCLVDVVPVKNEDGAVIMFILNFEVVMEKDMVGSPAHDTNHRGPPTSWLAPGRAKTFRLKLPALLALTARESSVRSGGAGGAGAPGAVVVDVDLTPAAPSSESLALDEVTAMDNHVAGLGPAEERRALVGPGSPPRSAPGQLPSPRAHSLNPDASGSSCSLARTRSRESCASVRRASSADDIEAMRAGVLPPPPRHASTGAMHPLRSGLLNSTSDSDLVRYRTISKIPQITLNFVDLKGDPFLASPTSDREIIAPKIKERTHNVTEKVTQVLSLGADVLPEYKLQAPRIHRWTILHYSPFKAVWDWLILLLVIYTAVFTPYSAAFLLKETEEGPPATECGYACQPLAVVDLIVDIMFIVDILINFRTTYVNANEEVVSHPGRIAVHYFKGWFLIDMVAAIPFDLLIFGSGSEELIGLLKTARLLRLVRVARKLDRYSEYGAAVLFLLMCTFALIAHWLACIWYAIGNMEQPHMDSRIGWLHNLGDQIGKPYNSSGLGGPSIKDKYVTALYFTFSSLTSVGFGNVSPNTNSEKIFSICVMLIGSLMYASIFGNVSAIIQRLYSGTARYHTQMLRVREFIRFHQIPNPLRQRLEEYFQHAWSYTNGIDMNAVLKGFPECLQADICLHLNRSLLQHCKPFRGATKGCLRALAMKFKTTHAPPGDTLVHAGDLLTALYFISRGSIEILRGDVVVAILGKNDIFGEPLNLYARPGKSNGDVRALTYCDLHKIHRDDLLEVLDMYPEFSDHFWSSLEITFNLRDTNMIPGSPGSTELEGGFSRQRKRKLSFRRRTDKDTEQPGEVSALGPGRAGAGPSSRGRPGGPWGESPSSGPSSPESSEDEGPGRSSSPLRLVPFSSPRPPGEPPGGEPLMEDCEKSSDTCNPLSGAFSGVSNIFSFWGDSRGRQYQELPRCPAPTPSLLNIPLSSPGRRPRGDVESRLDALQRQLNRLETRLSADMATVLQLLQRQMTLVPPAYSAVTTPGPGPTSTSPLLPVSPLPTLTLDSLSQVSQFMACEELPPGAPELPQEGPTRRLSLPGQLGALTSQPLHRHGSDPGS
Experimental: Manual patch-clamp (MPC) recordings were performed 24–48 h post-transfection. Patch pipettes were pulled from borosilicate glass and had resistances of 4–7 MΩ when filled with intracellular solution. Coverslips with CHO-K1 cells were placed in a recording chamber and continuously perfused at room temperature (22–24 °C) with extracellular solution using a gravity-fed perfusion system. The intracellular and extracellular solutions used for MPC were identical to those used for APC electrophysiology (see above). Extracellular solution without DMSO was used as a vehicle. Compounds were diluted from the stock solution as a series of dilutions in extracellular solution (i.e., no compensation for different concentrations of DMSO in recording solutions). Compounds were applied to the recorded cells by a pressurized, automated OctaFlow perfusion system (ALA Scientific Instruments).
Each voltage protocol was first run three times in extracellular solution, the 3rd serving as the baseline. Voltage protocols were repeated in the presence of cumulatively rising concentrations of test compound; each concentration was present for 30 s before the recording started. The signals were sampled at 5 kHz after low-pass filtering at 2 kHz.
For Gmax (rel.), N was set to –1. For ΔV50, N was set to 1.

hERG (KV11.1) = hERG (KV11.1) (Homo sapiens, UniProt Q12809); test: Automated planar patch-clamp (APC, QPatch II 48), voltage-ladder protocol, CHO cells stably expressing human hERG
Chain of hERG (KV11.1) (Q12809 whole entry): as above

[1] = Literature concentrations detected in post-mortem cases; conditions: conversion of cited ng/mL value
[2] = cited from earlier work

**Q.** With `COC(=O)C(NC(=O)c1nn(CCCCCF)c2ccccc12)C(C)(C)C` (stereo not shown) [5F-MDMB-PINACA, methyl 2-{[1-(5-fluoropentyl)-1H-indazole-3-carbonyl]amino}-3,3-dimethylbutanoate] as the compound, how does the pIC50 (hERG S649A) read?
**A.** 4.78

**Q.** And the pIC50 (hERG Y652A)?
**A.** 5.11

**Q.** And the pIC50 (hERG WT)?
**A.** 5.40

**Q.** And the pIC50 (hERG (KV11.1))?
**A.** 5.05

**Q.** What about the “effect on Gmax of hERG (in words)” value (hERG (KV11.1); APC concentration-response, 1.11 to 30 µM) of the same compound?
**A.** one of the most prominent in reducing Gmax of hERG

**Q.** And the “hERG channel Efficacy (max reduction in Gmax) Gmin” value (hERG (KV11.1); best fit, 1 = no reduction of Gmax, 0 = complete reduction, APC, 22 °C)?
**A.** 0.00

**Q.** And the “concentration in post-mortem cases, blood or serum (converted)” value ([1]; blood or serum samples)?
**A.** ≈ 5.3 nM

**Q.** And the “concentration in post-mortem case, heart muscle (converted)” value ([1]; heart muscle)?
**A.** ≈ 4.8 nM

**Q.** What about the “concentration in post-mortem cases, blood or serum” value ([2]; blood or serum samples) of the same compound?
**A.** approximately 2 ng/mL

**Q.** What about the “concentration in post-mortem case, heart muscle” value ([2]; heart muscle) of the same compound?
**A.** 1.82 ng/mL
